Measured values: the supplement of paper PMC10307832

Columns and labels:
Experiment in all cases: relative viability (nuclei count vs DMSO), 5 days (fraction); higher = more cells survive
VX-702 + Pictilisib = compound: NC(=O)c1ccc(N(C(N)=O)c2c(F)cccc2F)nc1-c1ccc(F)cc1F [VX-702] + CS(=O)(=O)N1CCN(Cc2cc3nc(-c4cccc5[nH]ncc45)nc(N4CCOCC4)c3s2)CC1 [Pictilisib] (partner 1 µM)
In short: (§1)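 After 5 days of treatment, lung cancer cells in 1536-well plates were fixed and stained in a single step (final 0.05% Triton X-100, 1% formaldehyde, 1 ug/ml Hoechst) and their nuclei counted on 4× images. Treatment had been applied by pin tool the day after seeding as one drug alone or as a fixed anchor-drug dose with five library-drug doses (not always all listed) in √10 steps. Relative viability is the nuclei count of treated wells divided by that of vehicle wells, and values are medians of duplicate plates.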

Dabrafenib + Pemetrexed = compound: CC(C)(C)c1nc(-c2cccc(NS(=O)(=O)c3c(F)cccc3F)c2F)c(-c2ccnc(N)n2)s1 [Dabrafenib] + Nc1nc2[nH]cc(CCc3ccc(C(=O)N[C@@H](CCC(=O)O)C(=O)O)cc3)c2c(=O)[nH]1 [Pemetrexed] (partner 0.2 µM)
In short: as §1

Dabrafenib + Olaparib = compound: CC(C)(C)c1nc(-c2cccc(NS(=O)(=O)c3c(F)cccc3F)c2F)c(-c2ccnc(N)n2)s1 [Dabrafenib] + O=C(c1cc(Cc2n[nH]c(=O)c3ccccc23)ccc1F)N1CCN(C(=O)C2CC2)CC1 [Olaparib] (partner 8 µM)
In short: as §1

VX-702 + Vorinostat = compound: NC(=O)c1ccc(N(C(N)=O)c2c(F)cccc2F)nc1-c1ccc(F)cc1F [VX-702] + O=C(CCCCCCC(=O)Nc1ccccc1)NO [Vorinostat] (partner 1 µM)
In short: as §1

Row | Cell Line | relative viability (VX-702 + Pictilisib; first compound 0.02 µM) | relative viability (VX-702 + Pictilisib; first compound 0.2 µM) | relative viability (VX-702 + Pictilisib; first compound 0.6325 µM) | relative viability (VX-702 + Pictilisib; first compound 2 µM) | relative viability (Dabrafenib + Pemetrexed; first compound 0.003 µM) | relative viability (Dabrafenib + Pemetrexed; first compound 0.009487 µM) | relative viability (Dabrafenib + Pemetrexed; first compound 0.03 µM) | relative viability (Dabrafenib + Pemetrexed; first compound 0.09487 µM) | relative viability (Dabrafenib + Pemetrexed; first compound 0.3 µM) | relative viability (Dabrafenib + Olaparib; first compound 0.003 µM) | relative viability (Dabrafenib + Olaparib; first compound 0.009487 µM) | relative viability (Dabrafenib + Olaparib; first compound 0.03 µM) | relative viability (Dabrafenib + Olaparib; first compound 0.09487 µM) | relative viability (Dabrafenib + Olaparib; first compound 0.3 µM) | relative viability (VX-702 + Vorinostat; first compound 0.02 µM) | relative viability (VX-702 + Vorinostat; first compound 0.2 µM) | relative viability (VX-702 + Vorinostat; first compound 0.6325 µM) | relative viability (VX-702 + Vorinostat; first compound 2 µM)
1 | UMC-11 | 0.696 | 0.762 | 0.582 | 0.813 | 0.761 | 0.806 | 0.727 | 0.822 | 0.871 | 0.443 | 0.879 | 0.354 | 0.317 | 0.427 | 0.339 | 0.293 | 0.353 | 0.376
2 | NCI-H1437 | 0.499 | 0.428 | 0.446 | 0.53 | 0.338 | 0.304 | 0.318 | 0.324 | 0.321 | 0.651 | 0.62 | 0.643 | 0.592 | 0.618 | 0.904 | 0.827 | 0.863 | 1.05
3 | EKVX | 0.408 | 0.351 | 0.35 | 0.358 |  | 0.484 | 0.419 | 0.408 | 0.395 |  | 0.763 | 0.766 | 0.641 | 0.966 | 0.823 | 0.671 | 0.676 | 0.696
4 | COR-L 105 | 0.449 | 0.386 | 0.409 | 0.366 | 1 | 1.2 | 0.799 | 1.19 | 1.29 | 0.685 | 0.793 | 0.702 | 0.599 | 0.799 | 0.734 | 0.805 | 0.795 | 0.855
5 | NCI-H650 | 0.745 |  | 0.821 | 1.05 |  | 0.938 | 0.846 | 0.522 | 0.464 |  | 0.381 | 0.341 | 0.189 | 0.287 | 0.607 | 0.309 | 0.494 | 0.609
6 | NCI-H1648 |  |  |  |  | 0.746 | 0.781 |  | 0.654 | 0.738 | 1.01 | 0.98 |  | 0.523 | 0.765 | 0.242 | 0.271 | 0.397 | 0.364
7 | NCI-H2009 | 0.866 | 0.739 | 0.789 | 1.05 | 0.997 | 0.956 | 0.818 | 0.761 | 0.701 | 0.638 | 0.626 | 0.625 | 0.439 | 0.516 | 0.791 | 0.847 | 0.907 | 1.03
8 | LXF-289 | 0.85 | 0.785 | 0.818 | 0.784 | 0.751 | 0.872 | 0.965 | 0.813 | 1.08 | 1.1 | 1.12 | 1.07 | 0.892 | 1.07 | 0.816 | 0.765 | 0.811 | 0.786
